Test results from patent US6140363A, “Use of rosmarinic acid and derivatives thereof as an immunosuppressant or an inhibitor of SH2-mediated processes” (Mogam Biotechnology Research Institute, priority 1998, dated 2000).
“Also recorded” adds a separate entry of the source. Where two headings read alike, the source gives them in different places.

Tests used:
Lck SH2 domain = molecular target: T1, Lck SH2 domain (Homo sapiens, UniProt P06239); assay: in vitro binding between Lck SH2 domain (GST fusion) and biotinylated phosphotyrosyl peptide
T1 construct: Lck SH2 domain expressed and purified as a fusion protein with Glutathione-S-transferase; made in house
Excerpt: A novel screening system was developed in the present invention to screen a substance inhibiting the interaction between Lck SH2 domain and its ligand. In the binding assay, Lck SH2 domain expressed and purified as a fusion protein with Glutathione-S-transferase (GSI) were covalently attached to 96-well microtitre plates through amide bond formation. The immobilized proteins were subsequently allowed to bind biotinylated phosphotyrosine (Y)-containing synthetic peptide (biotin-[…]pYEEIPI) known as a high affinity ligand for the Lck SH2 domain.
For attachment to 96-well microtitre plate, 1 μM of purified fusion protein (GST-Lck SH2) was reacted for 2 hours at room temperature. Added to the binding assay were 1 μM of the biotinylated synthetic peptide (the ligand of Lck SH2 domain) and a candidate for the inhibitor. The candidates were thousands of natural products including various kinds of Streptoryces, fungi and herbs extract. Binding reaction was performed for 2 hours at room temperature, allowing the competitive inhibition of the binding between GST-Lck SH2 and the peptide ligand. Then peroxidase-conjugated streptavidin (Pierce, USA) was added into the mixture so that added conjugates can be bound to biotinylated peptide. After unbound conjugates were washed, coloring reaction was performed to measure the activity of immobilized peroxidase, or the binding activity of the peptide to SH2 domain in the presence of the candidate added. More particularly, the coloring reaction was initiated by adding 3,3,5,5-tetramethyl benzidine (substrate) to the reaction mixture. After 30 minutes, the reaction was stopped by adding 0.8M sulfuric acid, and immediately brought to the spectrophotometry of measuring absorbance at 450 nm.
Various concentrations (0.03~300 μg/ml) of rosmarinic acid solution, which was isolated from Prunella vulgaris or derivatives thereof, were added to the protein-coated micro-well mixed with phosphopeptide solution. The binding of biotiyated pY peptides was detected by the streptavidin-conjugated horseradish peroxidase (HRP).

[1] = test system: DNFB-induced contact hypersensitivity; assay: contact hypersensitivity response to DNFB, ear thickness; type: in vivo, Balb/c female mice; settings: intramuscular, 6 consecutive days during induction phase; rosmarinic acid 5-50 mg/kg/day
Protocol: In vivo test procedure evaluating the immunosuppressive activity was performed using contact hypersensitivity response to DNEB (2,4-dinitroflourobenzene). […] This is an antigen-specific T cell-mediated inflammatory response that represents delayed-type hypersensitivity (DTH) reactions seen in both humans and other mammals. The contact sensitivity animal model is used routinely in many laboratories for pharmacological screening of anti-inflammatory agents and agents for the treatment of autoimmune diseases. […] The procedure is summarized as following. Balb/c female mice were used at 8 weeks of age. Twenty μl of 0.5% DNFB (Sigma Chemical Co.) in 4:1 diluted acetone: olive oil (Sigma Chemical Co.) was painted on each shaved abdominal skin for 2 successive days. Four days later, the mice were challenged by applying 10 μl of 0.2% DNFB in the same vehicle to each side of each ear. Cydosporin A and rosmarinic acid were treated through intramuscular administration at the indicated doses from 0 to 5 day. Ear thickness was measured using engineer's micrometer (Mitutoyo Co. Mfg. Ltd., Tokyo) 24 h after postchallenge.

[2] = test system: IL-2 gene expression in Jurkat T cells; assay: TCR stimulation-induced IL-2 gene expression, IL-2-luciferase reporter system; type: cell-based; settings: 8 μM, 30 min prior to T cell activation
Protocol: The effects of rosmarinic acid and derivatives thereof on the level of IL-2 gene expression were tested by using the IL-2-luciferase reporter system, in which cultured cells were transfected with a reporter plasmid. The plasmid was constructed by fusion of the IL-2 promoter sequence with the structural gene of luciferase. […] Cells were activated by incubation for 14 h on a 35 mm dish coated with 5 μg/ml anti-CD3 antibody (UCHT1, Pharmingen) and/or anti-CD4 antibody (RPA-T4, Pharmingen) and then harvested. For PMA plus Iononycin stimulation, 5 ng/ml of PMA and 500 ng/ml of lonomycin were added to the culture media and incubated for 14 h. Luciferase activity was determined three times in duplicate for each experiment with a Berthold luminometer LB953.

[3] = test system: IL-1β, IL-2, IL-4, IL-6 and IFN-γ mRNA; assay: cytokine mRNA in renal allografts, semi-quantitative RT-PCR; type: in vivo, mice; settings: renal allograft day 7, i.m. daily 7 days, rosmarinic acid 25, Cyclosporin A 50 mg/kg/day
Excerpt: Balb/c recipients transplanted from C57BL/6 donor were killed at 7 day after the subcapsular kidney transplantation. Renal allografts were harvested and total cellular RNA was extracted and analyzed for the expression of various cytokine mRNA. Using a serniquantitative PCR method, we temporally analyzed mRNA levels of IL-1β, IL-2, IL-4, IL-6 and IFN-γ.
The cytokine levels of PCR products were normalized by β-actin mRNA used as a control.
Kidney fragments (C57BL/6) were transplanted to allogeneic mice (Balb/C) using subcapsular kidney transplantation technique.
Total RNA from the grafts was isolated using TRIZOL® LS Reagent (Life Technologies), incubated at room temperature for 15 min after addition of chloroform, extracted with phenol/chloroform, and precipitated with isopropanol. Isolated total RNA was then quantitated spectrophotometrically. Total RNA from the graft (1 μg) was performed using Titan™ One Tube RT-PCR System (BM) according to the manufacture's protocol. The PCR was done in a 50 μl volume containing 1× RT-PCR buffer with Mg^2+, 0.2 mM each dNTP(dATP, dGTP, dCTP and dTTP), 10U RNase inhibitor, enzyme mix (AMV and Expand™ High Fidelity PCR-System),5 mM DTT solution and 0.4 μM appropriate primer pair. Primer sequences for IL-2, IFN-γ, IL-4, IL-6, IL-1β and β-actin were obtained from previous reports. […] The number of amplification cycles was 25. An aliquot (15 μl) of the PCR product was electrophoresed on 2% agarose gel, and amplified DNA fragments were stained with ethidium bromide.

SPF SD type rat = assay: parenteral administration test for acute toxicity; type: in vivo
Excerpt: Acute toxicity was examined using 6week-old SPF SD type rat. As liposomal form, I g/kg of rosmarinic acid, rosmarinyl isopropyl ester, rosmarinyl ethyl ester, (S)-rosmarinyl bis(tert-butyldimethylsilyl)ether or (S)-rosmarinic acid was intramuscularly injected into two […] per experimental group.

Jurkat cells = assay: intracellular calcium signaling activated by anti-CD3 and anti-CD4 antibodies (Fura-2/AM); type: cell-based; settings: 0.5-50 μg for 10 minutes, then anti-CD3 and anti-CD4 antibodies
Protocol: Fura-2/AM (Calbiochem, San Diego, Calif., USA), a fluorescent indicator of intracellular calcium, was loaded into Jurkat cells, and various amounts (0.5 μg, 1 μg, 10 μg, 50 μg) of rosmarinic acid, isolated from Prunella vulgaris, was treated to the cells for 10 minutes. The cells were treated with anti-CD3 and anti-CD4 antibodies, and then the fluctuation of intracellular calcium level was recorded by the amount of fluorescence emitted from the cells.

[4] = test system: C57BL/6 tail-skin graft on Balb/c recipient mice; assay: skin allograft rejection, survival time of skin graft; type: in vivo
Protocol: In vivo procedure evaluated the survival time of a skin graft.
Experimental allograft rejection was performed by grafting allogeneic C57BL/6 (H-2b) mouse tail-skin onto Balb/c (H-2d) recipient mice. Rosmarinic acid and derivative thereof were administered intramuscularly from the day of the transplantation until rejection. […] Full-thickness donor (C57BL/6) tail skin grafts (square pieces 2.0×2.0 cm) were transplanted onto the lateral thorax of recipient mice (Balb/C) and covered with sterile bactericidal gauze. The entire chest was then wrapped with an elastic bandage. […] Skin graft were monitored daily after the removal of the bandage on day 6. Rejection was defined as more than 90% necrosis of the graft epithelium.

[5] = 1 g/kg intramuscular, liposomal form
[6] = GST-Lck SH2, 1 μM biotinylated pY peptide, 0.03~300 μg/ml tested, read-out: half-maximal inhibitory concentration (IC50) of binding to Lck SH2 domain (converted)

T1 sequence (P06239 127-224 limits assumed): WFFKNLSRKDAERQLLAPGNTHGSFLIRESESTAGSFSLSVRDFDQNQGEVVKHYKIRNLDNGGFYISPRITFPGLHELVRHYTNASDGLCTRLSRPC

SMILES	IC50 (Lck SH2 domain)	suppression of DNFB-induced contact hypersensitivity [1]	inhibition of TCR-induced IL-2 gene expression (luciferase activity) [2]	IFN-γ mRNA transcription in allograft transplants [3]	IL-1β mRNA transcription in allograft transplants ([3]; 50 mg/kg/day)	IL-2 mRNA transcription in allograft transplants ([3]; 50 mg/kg/day)	IL-4 mRNA transcription in allograft transplants ([3]; 50 mg/kg/day)	IL-6 mRNA transcription in allograft transplants ([3]; 50 mg/kg/day)	acute toxic effect (clinic symptom, weights, blood test, autopsy) (SPF SD type rat; [5])	survival after acute dose (SPF SD type rat; [5])	inhibitory effect on intracellular calcium level (Jurkat cells)	MST ± SD ([4]; 15 mg/kg/day i.m.)	MST ± SD ([4]; 15 mg/kg/day i.m., listed as rosmarinic acid)	MST ± SD ([4]; 25 mg/kg/day i.m.)	IC50 (Lck SH2 domain; read-out: half-maximal inhibitory concentration (IC50) of binding to Lck SH2 domain, GST-Lck SH2, 1 μM biotinylated pY peptide, 0.03~300 μg/ml tested)	IC50 (Lck SH2 domain; [6])	survival after acute dose (SPF SD type rat; in vivo)
O=C(/C=C/c1ccc(O)c(O)c1)OC(Cc1ccc(O)c(O)c1)C(=O)O (centres unmarked) [Rosmarinic acid, rosmarinic acid]	8.33 µM	dose-dependently suppressed	more efficiently than other immunosuppressants did	markedly inhibited	markedly inhibited; also recorded: more potent activity than that of Cyclosporin A	markedly inhibited; also recorded: more potent activity than that of Cyclosporin A	markedly inhibited; also recorded: significantly reduced	markedly inhibited; also recorded: significantly reduced	did not elicit any toxic effect	all tested animals were survived	dose-dependent inhibitory effect	14.0 ± 1.0 days	14.0 days	18.8 ± 3.6 days			
O=C(/C=C/c1ccc(O)c(O)c1)O[C@@H](Cc1ccc(O)c(O)c1)C(=O)O [(S)-rosmarinic acid]	27.8 µM	dose-dependent suppression	inhibited as much as rosmarinic acid						did not elicit any toxic effect	all tested animals were survived		14.8 ± 1.5 days					
CC(C)(C)[Si](C)(C)Oc1ccc(/C=C/C(=O)O[C@@H](Cc2ccc(O)c(O)c2)C(=O)O)cc1O[Si](C)(C)C(C)(C)C [(S)-Rosmarinyl bis(tert-butyldimethylsilyl)ether]		dose-dependent suppression	inhibited as much as rosmarinic acid						did not elicit any toxic effect	all tested animals were survived		13.2 ± 1.6 days			22.1 µM		
CC(C)OC(=O)C(Cc1ccc(O)c(O)c1)OC(=O)/C=C/c1ccc(O)c(O)c1 (centres unmarked) [Rosmarinyl isopropyl ester]		dose-dependent suppression	inhibited as much as rosmarinic acid						did not elicit any toxic effect			14.2 ± 1.8 days				2.49 µM	all tested animals were survived
CCOC(=O)C(Cc1ccc(O)c(O)c1)OC(=O)/C=C/c1ccc(O)c(O)c1 (centres unmarked) [Rosmarinyl ethyl ester]		dose-dependent suppression	inhibited as much as rosmarinic acid						did not elicit any toxic effect			14.4 ± 1.8 days				10.3 µM	all tested animals were survived
